Source: US9422247B2, “Fe(III) complex compounds for the treatment and prophylaxis of iron deficiency symptoms and iron deficiency anemias” (Vifor (International) AG, priority 2011, dated 2016)

Tested on: Male NMRI (SPF) mice
Assay: iron utilization in mouse model (low-iron diet)
Type: in vivo
Conditions: iron-deficient male NMRI mice; stomach tube, 2 mg iron/kg body weight/day, days 1-5 and 8-12; utilization on day 15 calculated from hemoglobin and body weight increase
Method: The excellent Fe utilizations that can be accomplished through the Fe complexes according to the invention were measured by means of the following mouse model. Male NMRI (SPF) mice (approximately 3 weeks old) were fed a low-iron diet (approx. 5 ppm iron) for approximately 3 weeks. The iron complexes were then administered to them by means of a stomach tube (2 mg iron/kg body weight/day) for 2 times 5 days, with an interruption of 2 days (days 1-5 and 8-12). Utilization on day 15 was calculated from the hemoglobin increase and the body weight increase in accordance with the formula […] Control group, utilized from food, (mg Fe)

Tris-(6-ethyl-4-methylpyrimidin-2-ol-1-oxide)-iron(III) complex [Example 9]
Utilization n 15 d (abs. %): 69 abs. %

Tris-(4-methylpyrimidine-2-ol-oxide)-iron(III) complex [Example 2]
Utilization n 15 d (abs. %): 80 abs. %

Tris-(4-propane-2-yl)pyrimidine-2-ol-1-oxide)-iron(III) complex [Example 12]
Utilization n 15 d (abs. %): 55 abs. %

Tris-(4-methyl-5,6,7,8-tetrahydrochinazoline-2-ol-3-oxide)-iron(III) complex [Example 11]
Utilization n 15 d (abs. %): 74 abs. %

Tris-(5-chloro-4,6-dimethylpyrimidine-2-ol-1-oxide)-iron(III) complex [Example 7]
Utilization n 15 d (abs. %): 64 abs. %

Tris-(4,6-diethylpyrimidine-2-ol-1-oxide)-iron(III) complex [Example 4]
Utilization n 15 d (abs. %): 76 abs. %

Tris-(pyrimidine-2-ol-1-oxide)-iron(III) complex [Example 1]
Utilization n 15 d (abs. %): 89 abs. %

Tris-(5,6-dimethylpyrimidine-2-ol 1-oxide)-iron(III) complex [Example 16]
Utilization n 15 d (abs. %): 57 abs. %

Tris-(4,6-dimethylpyrimidine-2-ol-1-oxide)-iron(III) complex [Example 3]
Utilization n 15 d (abs. %): 74 abs. %

Tris-(4-methyl-6,7-dihydro-5H-cyclopenta[d]pyrimidin-2-ol-1-oxide)-iron(III) complex [Example 10]
Utilization n 15 d (abs. %): 70 abs. %

Tris-(4,5,6-trimethylpyrimidine-2-ol-1-oxide)-iron(III) complex [Example 6]
Utilization n 15 d (abs. %): 70 abs. %

Tris-(4-ethylpyrimidine-2-ol-1-oxide)-iron(III) complex [Example 8]
Utilization n 15 d (abs. %): 82 abs. %
